Measured values taken from PMC5514153, “Targeting PTPRZ inhibits stem cell-like properties and tumorigenicity in glioblastoma cells” (Scientific Reports, 2017).
pIC50: −log10 of the molar value.

Target: T1, hPTPN1 (Homo sapiens, UniProt P18031)
T1 construct: the catalytic domains of PTPN1 and PTPN6 were expressed as glutathione-S-transferase (GST) fusion proteins; GST (N); made in house; host or cells: Escherichia coli BL21
T1 sequence (P18031 3-277 limits assumed): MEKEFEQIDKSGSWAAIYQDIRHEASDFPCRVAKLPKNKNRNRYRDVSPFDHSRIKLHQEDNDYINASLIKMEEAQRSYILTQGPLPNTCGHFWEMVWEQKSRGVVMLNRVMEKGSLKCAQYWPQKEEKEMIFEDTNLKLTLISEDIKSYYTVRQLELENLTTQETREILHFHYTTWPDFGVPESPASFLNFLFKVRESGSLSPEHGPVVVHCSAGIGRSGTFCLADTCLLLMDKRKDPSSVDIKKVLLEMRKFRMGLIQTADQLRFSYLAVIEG
Test: In vitro PTPase assay (DiFMUP), PTPN1
Format: biochemical
Settings: 60-min preincubation
Description: Figure 4 NAZ2329, an allosteric inhibitor of R5 RPTP subfamily members. (A) Structure of NAZ2329. (B) Effect of preincubation of NAZ2329 on its inhibitory activity against PTPRZ. Recombinant human PTPRZ1 enzyme (the whole intracellular region) was premixed with NAZ2329 for the indicated times and followed by addition of a fluorogenic DiFMUP (non-specific PTP substrate, 6,8-difluoro-4-methylumbiliferyl phosphate) to measure PTP inhibitory activity. (C) Time dependence. The PTPRZ1 enzyme was added to the inhibitor–substrate mixture, and the inhibitory activity was determined at each time point relative to the vehicle control. (D) Reversibility of inhibition. […] The mixture was then 20-fold diluted, and recovered PTP activity was expressed as the relative activity compared with the vehicle-treated enzyme. […] PTPRZ1 enzymes were preincubated with NAZ2329 for 60 min, and the PTP activity was measured using DiFMUP. […]
Recombinant proteins corresponding to the entire intracellular regions (ICRs) of PTPRZ1, PTPRA, and PTPRM were expressed using a baculovirus-silkworm expression system, and purified as described. The ICRs of PTPRG, PTPRS, and PTPRB and the catalytic domains of PTPN1 and PTPN6 were expressed as glutathione-S-transferase (GST) fusion proteins from each pGEX plasmid in Escherichia coli strain BL21 (ref. [6]). […]

CCOc1ccc(C(F)(F)F)cc1CSc1ccsc1C(=O)NS(=O)(=O)c1ccccc1 [NAZ2329]
pIC50: 4.84
